# In the SangsterLogP compilation:
row,Compound,logP
1,O=C(CBr)c1ccccc1,2.19
2,Oc1ccc2cc(O)ccc2c1,1.9
3,OC1CCCc2ccccc21 (configuration not stated),1.98
4,CC(=O)c1cccc(Br)c1,2.58
5,O=[N+]([O-])c1cc(F)cc(F)c1,2.03
6,O=Cc1cccc(Cl)c1,2.26
7,CC(=O)c1ccc(Br)cc1,2.57
8,Cc1cc2ccccc2o1,3.22
9,CC(=O)c1cccc(Cl)c1,2.43
10,O=[N+]([O-])c1cccc(F)c1,2.02
11,CC(=O)c1ccccc1Br,2.28
12,O=[N+]([O-])c1cc(F)ccc1F,1.86
13,Oc1cccc2c(O)cccc12,2.19
14,O=[N+]([O-])c1ccc(F)cc1,1.89
15,CC(O)c1ccc2ccccc2c1 (configuration not stated),2.68
16,OCC1c2ccccc2-c2ccccc21,2.89
17,Oc1ccc2c(c1)CCCC2,2.9
18,O=[N+]([O-])c1ccccc1F,1.84
19,O=Cc1ccccc1Cl,2.28
20,CCCc1ccccc1O,2.93
21,OCc1cccc2ccccc12,2.37
22,Oc1cc2ccccc2cc1O,2.24
